Assay: Human HepG2 cell viability assay in 384 well format
Type: toxicity, cell-based
Set-up: dose 125 nL, time 70.5 hour; concentration not given beside the values
Details: HepG2 cells, read-out: Inhibition

| Structure (SMILES) | cytotoxicity at 70.5 h [%] |
| --- | --- |
| O=C(NCCO)c1cc(-c2ccc3c(c2)CCO3)n[nH]1 | 18 |
| CCC(CO)N(Cc1ccco1)Cc1c(C)nn(C)c1Cl (stereo not drawn) | 3.17 |
| CN(CC1(O)CCN(c2ccnc3ccncc23)CC1)C(=O)CCN | -6.66 |
| Cc1ccc(N2CCCC(NCc3ccc4c(c3)OCCO4)C2)nn1 (stereo not drawn) | 1.38 |
| CN(C)C(=O)[C@@H]1CCO[C@@H]2CCN(Cc3ccccc3)C[C@@H]21 | -3.08 |
| COc1ccc(S(=O)(=O)NC(=O)c2ccccc2F)cc1OC | 1.07 |
| Cc1oc(-c2ccco2)nc1CC(=O)N1CCC(C(O)C(F)(F)F)CC1 (stereo not drawn) | -18.3 |
| Cc1noc([C@@H]2CC[C@@H]3[C@@H](CCN3S(C)(=O)=O)O2)n1 | -16.7 |
| O=C(NC[C@H]1C[C@@H]2CCN1C[C@@H]2CN1CCCCC1)c1ccco1 | 0.157 |
| CC(C)c1nccn1C1CCCN(C(=O)c2ccc3[nH]cnc3c2)C1 (stereo not drawn) | 8.82 |
| Cc1cc(CNC(=O)c2ccc(F)c(COCC3CC3)c2)no1 | -9.69 |
| Cc1ccnn1CC(=O)Nc1cc(-c2ccncc2)[nH]n1 | -6.24 |
| CCOc1cccc(C(=O)NCCC(=O)NCc2ccncc2)c1 | 23 |
| Cc1ccc(C(=O)N2CCC3(CC2)CCN(Cc2ccccn2)C3=O)o1 | 26.4 |
| CN(Cc1cnn(C)c1)S(=O)(=O)N1CCCC1c1ccco1 (stereo not drawn) | -0.954 |
| CC(C)[C@H]1COC(=O)N1Cc1nncn1C(C)C | -7.29 |
| CN(Cc1cc2cc(F)ccc2[nH]1)C(=O)C1CC(=O)N(C2CCCC2)C1 (stereo not drawn) | -4.53 |
| CN1CCN(Cc2ccncc2)C(=O)C12CCN(c1nccs1)CC2 | -2.86 |
| c1ccn(Cc2nnc3n2CCCN(c2cnccn2)C3)c1 | 16 |
| Cc1cccc(NC(=O)C(C)Nc2cccc(CN3CCOC3=O)c2)c1 (stereo not drawn) | -7.24 |
| CC(Nc1ncnc2c1NC(=O)CN2)c1ccccn1 (stereo not drawn) | -13.6 |
| COc1ccc(-c2n[nH]c(C)c2CC(=O)N2CCOCC2)cc1 | -6.85 |
| O=C(CO)N1CCCC(N2CCN(c3ccccc3F)CC2)C1 (stereo not drawn) | -0.739 |

| Structure (SMILES) | cytotoxicity at 70.5 h [%] |
| --- | --- |
| Cc1nc(C)c(C(=O)N2CCCC2c2nnc3n2CCCCC3)s1 (stereo not drawn) | -8.07 |
| CSc1ccccc1C(=O)Nc1ccc(OC2CCN(C)CC2)cc1 | 17.4 |
| CCc1noc(C(C)N(C)CC(=O)Nc2ccc(C)cc2)n1 (stereo not drawn) | -4.51 |
| NCCC(=O)Nc1ccc(-c2ccccc2)cc1 | -5.02 |
| CN(C)c1cncc(C2CCN(CCO)CC2)n1 | -8.74 |
| O=C(NCc1ccc(F)cc1)NCC(O)(c1ccco1)C1CC1 (stereo not drawn) | 6.32 |
| Cc1c(CC(C#N)C(=O)Nc2cccc(O)c2)cnn1C (stereo not drawn) | -12.8 |
| c1ccc(-c2cc(CN3C[C@@H]4CC[C@H](C3)N(CC3CCC3)C4)on2)cc1 | -11.6 |
| CN1CCC(Nc2ccc(Cl)cc2OCC(F)(F)F)C1=O (stereo not drawn) | -3.11 |
| COCCOC[C@]1(CNCc2ccc(F)cc2)C[C@@H](O)[C@@H](O)C1 | 11.8 |
| CC(C)Cc1nc(OCC(N)=O)c(C#N)c2c1CCCC2 | -9.41 |
| CC(O)CC(C)(C)CNC(=O)NCc1cccc(-n2ccnc2)c1 (stereo not drawn) | -7.65 |
| COc1ccc(-n2cccn2)c(CN2CCC3(CCCNC3)C2)c1 (stereo not drawn) | -7.03 |
| CN(C)CCOCC1CN(CCN(C)C)Cc2ccnn2C1 (stereo not drawn) | -10.7 |
| CC(SCC(=O)NCCC#N)c1ccc(Cl)cc1 (stereo not drawn) | -18.4 |
| CCOc1ccc(C#N)cc1NCC(=O)OC | -2.6 |
| CO[C@H]1CN(C(=O)OC(C)(C)C)CC1NCc1ccoc1 (stereo partly drawn) | -13.8 |
| COCCCNC(=O)c1nnsc1-c1ccccc1 | -14.7 |
| O=C(Cc1ccco1)N1C[C@H]2CCC[C@@]2(COCC2CC2)C1 | -11.1 |
| Cc1ccc(CNCc2nnc3n2CCCC3C(F)(F)F)o1 (stereo not drawn) | 6.51 |
| Cc1ncsc1CN1CCN(C)C2(CCC(=O)N(CCO)CC2)C1 (stereo not drawn) | 3.92 |
| COc1cccc(CCC(=O)N2CCN(CC(C)(C)O)CC2)c1 | 10.1 |
| Cc1cccnc1CN1CC[C@H](Oc2cccc(F)c2)[C@@](C)(O)C1 | -0.828 |

| Structure (SMILES) | cytotoxicity at 70.5 h [%] |
| --- | --- |
| CCC[C@H]1CN(Cc2cc(C)no2)C[C@@H]1NC(=O)C1(COC)CCC1 | -10 |
| CCC(C)NC(=O)c1nnn(-c2ccc(Br)cc2)n1 (stereo not drawn) | 5.21 |
| COc1ccc(CCNC(=O)NC2CCCC2)cc1OC | -12.5 |
| CN(CCc1ccccn1)C(=O)Nc1cc(C(F)(F)F)c[nH]c1=O | 8.07 |
| CC(C)(C)c1cc(=O)[nH]c(-c2ccccc2CN2CCCCCC2)n1 | -3.97 |
| CC(C)CC(=O)NCCCc1cc(N)n(-c2ccccc2)n1 | 4.65 |
| CCC(C)N(Cc1cc(C)n[nH]1)Cc1ccccc1Cl (stereo not drawn) | -10.8 |
| Cc1ccc(-c2nc(CN3CCc4c(ncn4C)C3)cs2)o1 | 36.9 |
| Cc1cccc(C2(NC(=O)CCCn3cncn3)CCCC2)c1 | -5.53 |
| O=C1CCSCC(C(=O)N2CCCC2)N1 (stereo not drawn) | -2.31 |
| CCN(CC)S(=O)(=O)c1ccc(CNC(=O)N2CCCCCC2)cc1 | -7.35 |
| CC(C)N1CCN(C)CC1c1nnc2ccc(C(=O)N3CCCC3)cn12 (stereo not drawn) | -11.5 |
| CCc1nc2n(n1)CC(NCc1nc(-c3ccccn3)no1)CC2 (stereo not drawn) | -3.45 |
| CC(C)NC(=O)CN(C)CC(=O)/N=c1/cc[nH]n1C(C)C1CC1 (stereo not drawn) | 34.2 |
| O=C(c1cc2c(F)cccc2[nH]1)N1CCCCC1Cn1cccn1 (stereo not drawn) | 3.2 |
| NC(=O)N1C[C@@H]2CN(C(=O)c3ccco3)C[C@@H]2C1 | -7.36 |
| Cc1ccccc1C(C(=O)NCCn1cccc1)N(C)C (stereo not drawn) | -9.04 |
| Cc1cc2nc(C(C)C)cc(N(C)CC3CCCN3C)n2n1 (stereo not drawn) | -10.7 |
| O=C(Cc1cccs1)N1CCOC(c2cccc(O)c2)C1 (stereo not drawn) | 0.631 |
| CSCCC1CC(=O)Nc2cc(O)c(C)cc21 (stereo not drawn) | 25.3 |
| Cc1cc(C)c2c(N(C)CC3CCOC3)ncnc2n1 (stereo not drawn) | -4.45 |
| Fc1ccc(-c2noc(CN3CCC(c4cc[nH]n4)CC3)n2)cc1 | -3.56 |
| Cc1cc(NC(=O)c2nc(N3CCCC3)ncc2Cl)ccc1Br | -5.96 |

| Structure (SMILES) | cytotoxicity at 70.5 h [%] |
| --- | --- |
| COc1cccc2c1ccn2CC(=O)N[C@@H](CCSC)C(=O)O | -3.11 |
| CN(Cc1ccco1)C[C@H]1OC[C@@H]2CCN(Cc3nccs3)C[C@@H]21 | -10.1 |
| Cc1ccc2cc(CNCCN3CCCC3)c(=O)[nH]c2c1 | -0.158 |
| CC(=O)N[C@@H](C)C(=O)NCc1cccnc1Oc1ccccc1F | -11.6 |
| Cc1nccc(-c2ccccc2)c1C(=O)N1CC[C@](C)(O)C(C)(C)C1 | 1.9 |
| O=C(NCC1CCCCC1)NC1CCCc2c1cnn2CCO (stereo not drawn) | -7.67 |
| O=C(NCC1(O)CCSC1)c1cccc(-n2cccn2)c1 (stereo not drawn) | -10.4 |
| CCc1c(C)sc2nc3n(CCN4CCOCC4)nc(SC)n3c(=O)c12 | 5.28 |
| Clc1cncc(NCc2cccc(COC3CCOCC3)c2)n1 | -6.08 |
| CN1Cc2c(C(=O)NC3CCCCC3)ncn2-c2ccccc2S1(=O)=O | 2.35 |
| COCCN1CCO[C@@H]2CN(C(=O)COc3ccc(C)cc3)C[C@@H]2C1 | -8.74 |
| CC(=O)Nc1cccc(C(=O)N2CCc3c(nc(N(C)C)[nH]c3=O)C2)c1 | 16.1 |
| Cc1cccc(C)c1Oc1ncccc1CNC(=O)C1COC(=O)N1 (stereo not drawn) | -21.8 |
| CNCC(=O)N1CCCC1c1n[nH]cc1-c1ccccc1F (stereo not drawn) | 0.833 |
| CCN1CCn2c(C)cnc2C12CCN(C(=O)N(C)C)CC2 | -9.01 |
| O=C1CC(c2ccncc2)C2(CCN(C(=O)c3ccc[nH]3)CC2)N1 (stereo not drawn) | 23.7 |
| Cc1csc(CNc2cccc(OCCN3CCCC3)c2)n1 | 19.9 |
| Cn1ncc(C(=O)OCC2CCN(c3ccccc3)C2)c1C(F)F (stereo not drawn) | -3.5 |
| CCn1nc(C)cc1S(=O)(=O)N1CCC2(CC(=O)NC2=O)C1 (stereo not drawn) | -5.01 |
| Cc1ccc(O)c(CNc2cccc(CN3CCSCC3)c2)n1 | 1.03 |
| NCC1(c2cccc(C(F)(F)F)c2)CCOCC1 | -3.44 |
| Cc1ncsc1-c1nnc(C2CCN(Cc3ccccc3Cl)CC2)o1 | -0.461 |
| COCCN1CCC2(COCc3c(C)nc(N(C)C)nc32)C1 (stereo not drawn) | -2.27 |

| Structure (SMILES) | cytotoxicity at 70.5 h [%] |
| --- | --- |
| CCc1[nH]c2c(CNC(=O)C3CNC(=O)C3)cc(C)cc2c1C (stereo not drawn) | -11.3 |
| CCCN1C[C@H]2CC[C@@H]1CN(C(=O)Cc1c(C)nc(CC)[nH]c1=O)C2 | -8.7 |
| COc1nccc(C(F)(F)F)c1C(=O)O | 0.892 |
| CC(C)Nc1cc(N2CCC(n3cc(C4CCCC4)nn3)CC2)ncn1 | -8.81 |
| CC1(C)CN(CCC(=O)NCc2cccc(Cl)c2)CC[C@]1(C)O | -9.57 |
| Cc1nccn1-c1ccc(NC(=O)C2CCCN2Cc2ccoc2)cc1 (stereo not drawn) | -6.93 |
| CC(C)c1cc(NC(=O)CN2CCCC(Cn3cncn3)C2)on1 (stereo not drawn) | 17.9 |
| CS(=O)(=O)NCCCN1CCCC1c1ccsc1 (stereo not drawn) | -9.71 |
| CC(C)CCN1CCNC(=O)C1CC(=O)NCCc1cc(O)ncn1 (stereo not drawn) | -11 |
| O=C(c1sccc1C1CC1)N1CCN(c2nccs2)CC1 | 6.38 |
| CC(C)CCN1CCN(Cc2nc(C3CC3)no2)CC1 | 20.6 |
| O=C(NCc1ccco1)[C@H]1C[C@@H]2CCN(c3ncccn3)C[C@H]2O1 | -5.11 |
| CCS(=O)(=O)N1Cc2ncn(CC3CC3)c2C(COC)C1 (stereo not drawn) | -0.679 |
| CCc1ncncc1C(=O)N1CCN(Cc2cscn2)CC1 | -3.97 |
| Cc1cnc(N2CC[C@@]3(O)CCCC[C@H]3C2)nc1-c1ccnn1C | -7.52 |
| COc1c(CNC(c2ccc(F)cc2)C(C)(C)C)c(C)nn1C (stereo not drawn) | 3.66 |
| COc1ccc(N2CCCC3(C2)CN(c2ncccn2)CCO3)cc1 (stereo not drawn) | -2.45 |
| CC(C)Oc1cc(N2CCCC(O)C2)nc(N)n1 (stereo not drawn) | 7.95 |
| CC(C)(C)n1ncc(NCc2ccccc2)c(Cl)c1=O | 22.2 |
| Cc1nnc2n1CC(CNc1cnc3ccccc3n1)CC2 (stereo not drawn) | -9.52 |
| COCCn1cc(C(=O)N2CCCC2c2cccs2)c2ccccc21 (stereo not drawn) | 7.25 |

Reference: ChEMBL document CHEMBL3507680, “University of Dundee, Gates Library screen for HepG2 cell viability”
